This note sets out measurements from US10906905B2, “Five-membered heteroaryl ring bridged ring derivative, preparation method therefor and medical use thereof” (Jiangsu Hengrui Medicine Co., Ltd., priority 2016, dated 2021).

One may read the IC50 as the concentration that inhibits the measured activity by half. In general, AUC refers to the area under the concentration-time curve, a measure of exposure. By MRT is commonly meant the average time that molecules of a dose stay in the body.

Data set [1] deals with TGFβRI kinase ALK5 (Homo sapiens (Human), UniProt P36897). The data set is described as follows: Inhibition of TGFβRI kinase ALK5 activity (TGFβRI kinase assay kit, ADP-Glo). It counts as biochemical. The note with it: ATP 50 μM; read-out: IC50 of inhibition effect on TGFβRI kinase ALK5 activity. The procedure: The inhibition effect of TGFβRI kinase activity in vitro was determined by the following method.
The inhibition effect of the compounds of the present invention on TGFβRI kinase ALK5 activity was determined by the following experimental method:
TGFβRI kinase assay kit (V4093, Promega) was used to assay enzyme activity. 2 μl of enzyme solution (the final concentration of enzyme in the reaction system was 2 ng/μL) formulated with reaction buffer (40 mM Tris pH 7.5, 20 mM MgCl2, 0.1 mg/ml BSA), 1 μl of a 3-fold gradient dilution of the compounds dissolved in 5% DMSO, and 2 μl of a mixed solution of ATP and TGFβRI substrate peptide (the final concentration of ATP was 50 μM, and the final concentration of substrate was 0.2 μg/μL) were added successively to a 384-well plate (4514, Corning). After reaction at 27° C. for 2.5 hours, 5 μl of ADP-Glo solution in the kit was added to each well, then the plate was placed at 27° C. for 40 minutes. 10 μl of kinase assay reagent was then added to each well, then the plate was placed at 27° C. for 30 minutes. The chemiluminescence signal values were measured with a Victor 3 (PerkinElmer) multi-function microplate reader. The IC50 values of the compounds for enzyme inhibition were calculated using Graphpad prism software based on each concentration of the compound and the corresponding signal value thereof.
A general note: In ADP-Glo the light output rises with the ADP produced.

For data set [2], the system named is NIH3T3 cell. The experiment in a line: Inhibition of NIH3T3 cell proliferation (CellTiter-Glo). As to conditions: Mus musculus, 72 hours, 0.5% FBS. It counts as cell-based. The procedure:
The inhibition effect of the compounds of the present invention on NIH3T3 cell proliferation was determined by the following in vitro test.
The inhibition effect of the compounds of the present invention on NIH3T3 cell proliferation was determined by the following experimental method:
On a 96-well white plate with transparent bottom (3903, Corning), 100 μL of NIH3T3 cell (GNM6, Cell Bank of Typical Culture Collection Committee of Chinese Academy of Sciences) was seeded in a DMEM medium containing 10% FBS in each well. The seeding density is 2000 cells/well. The cells were incubated overnight at 37° C., 5% CO2. After overnight incubation, each well was replaced with 90 μL of DMEM medium containing 0.5% FBS. 10 μl of a 3-fold gradient dilution of the compounds with DMEM medium containing 0.5% FBS was then added, and the plate was incubated for 72 hours in a cell incubator at 37° C., 5% CO2. Finally, 50 μL of CellTiter-Glo (G7573, Promega) was added to each well. After incubation for 10 minutes at room temperature, the chemiluminescence signal values were measured with a Victor 3 microplate reader (PerkinElmer). The IC50 values of the compounds were calculated using Graphpad Prism software based on each concentration of the compound and the corresponding signal value thereof.
In general terms: In ATP-based viability assays light output follows the ATP content of the culture.

For data set [3], the system named is Smad signaling pathway of TGFβRI. The experiment in a line: Inhibition of Smad signaling pathway of TGFβRI (3TP-lux luciferase reporter in HepG2 cell). It counts as cell-based. The note with it: Homo sapiens; HepG2 cell, 3TP-lux plasmid, 18 hours; read-out: IC50 on the inhibition of Smad signaling pathway of TGFβRI. As for the experimental part: The inhibition effect of the compounds of the present invention on Smad signaling pathway of TGFβRI was determined by the following in vitro test.
The inhibition effect of the compounds of the present invention on Smad signaling pathway of TGFβRI was determined by the following experimental method:
The seeding density is 2.5×10^4 cells/well. The cells were incubated overnight at 37° C., 5% CO2. Each well was replaced with fresh EMEM medium containing 10% FBS. […] The cells were further incubated for 24 hours at 37° C., 5% CO2. Each well was replaced with 90 μL of EMEM medium containing 0.5% FBS, then the cells were starved for 6 hours. The compounds were formulated as a 20 mM stock solution, which was diluted in gradient to a 400× concentration with 100% DMSO, and further 40-fold diluted with EMEM containing 0.5% FBS. The cell culture plate was taken out, then 10 μl of diluted compound or control (0.25% DMSO) was added to each well respectively. The plate was shaken gently, then incubated for 18 hours in an incubator at 37° C., 5% CO2. Finally, 100 μl of detection reagent ONE-Glo™ Luciferase Assay (E6110, Promega) was added to each well, and the plate was placed in dark at room temperature for 10 minutes. The chemiluminescence signal values were measured with a Victor 3.0 (PerkinElmer). The IC50 values of the compounds were calculated using Graphpad Prism software based on each concentration of the compound and the corresponding signal value thereof.
In general terms: Reporter assays use an easily measured gene product as a stand-in for the process of interest.

Data set [4] is described as follows: Pharmacokinetics assay in rats after intragastrical administration. It counts as in vivo. The note with it: both sexes, Sprague-Dawley, rat, plasma, po, SD rats, 2 mg/kg. As for the experimental part: Rats were used as test animals. The drug concentration in plasma at different time points was determined by LC/MS/MS method after intragastrical administration of the compounds of Examples 1-1, 1-2, 2-1, 3-1, the compound with retention time of 6.631 minutes among Examples 9-1 and 9-2, and the compounds of Examples 33 and 39-1 to rats. The pharmacokinetic behavior of the compounds of the present invention was studied and evaluated in rats.
Compounds of Examples 1-1, 1-2, 2-1, 3-1, compound with retention time of 6.631 minutes among Examples 9-1 and 9-2, and compounds of Examples 33 and 39-1.
Twenty-eight healthy adult Sprague-Dawley (SD) rats (half male and half female) were purchased from SINO-BRITISH SIPPR/BK LAB. ANIMAL LTD., CO, with Certificate No.: SCXK (Shanghai) 2008-0016, and equally divided into 7 groups (4 rats per group).
A certain amount of the test compound was weighed, and added with 5% by volume of DMSO, 5% by volume of Tween 80, and 90% by volume of physiological saline were added to prepare a 0.2 mg/mL colorless, clear and transparent solution.
After an overnight fast, SD rats were administered intragastrically the test compounds at an administration dosage of 2.0 mg/kg and an administration volume of 10.0 mL/kg.
The rats were intragastrically administered the compounds of Examples 1-1, 1-2, 2-1, 3-1, the compound with retention time of 6.631 minutes among Examples 9-1 and 9-2, and the compounds of Examples 33 and 39-1.0.2 mL of blood was taken from the orbital sinus before administration and at 0.5, 1.0, 2.0, 4.0, 6.0, 8.0, 11.0 and 24.0 hours after administration. The samples were stored in heparinized tubes, and centrifuged for 10 minutes at 4° C. at 3,500 rpm to separate the blood plasma. The plasma samples were stored at −20° C. The rats were fed 2 hours after administration.
The content of the test compounds in the plasma of rats after intragastrical administration of the test compounds at different concentrations was determined: 25 μL of rat plasma at each time after administration was taken, added with 50 μL (100 ng/mL) of the internal standard solution of camptothecin and 175 μL of acetonitrile, shaken vertically for 5 minutes, and centrifuged for 10 minutes (4000 rpm). 3.0 μL of the supernatant was taken from the plasma samples for LC/MS/MS analysis.

TGFβRI kinase ALK5, sequence (P36897 34-503): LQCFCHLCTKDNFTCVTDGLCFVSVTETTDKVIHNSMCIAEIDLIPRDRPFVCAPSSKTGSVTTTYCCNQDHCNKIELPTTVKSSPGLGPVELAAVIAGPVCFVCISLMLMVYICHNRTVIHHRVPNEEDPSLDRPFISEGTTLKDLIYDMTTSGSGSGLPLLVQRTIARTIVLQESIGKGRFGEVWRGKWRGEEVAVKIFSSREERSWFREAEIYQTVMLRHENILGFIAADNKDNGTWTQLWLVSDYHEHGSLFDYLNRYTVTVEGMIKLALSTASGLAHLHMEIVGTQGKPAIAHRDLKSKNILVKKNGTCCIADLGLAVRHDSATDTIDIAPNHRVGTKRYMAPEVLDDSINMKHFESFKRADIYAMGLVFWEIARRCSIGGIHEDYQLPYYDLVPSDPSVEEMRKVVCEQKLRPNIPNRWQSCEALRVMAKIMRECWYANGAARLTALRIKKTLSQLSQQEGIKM

Consider `Cc1cccc(-c2nn3c(c2-c2ccc4ncnn4c2)C2CCC3CC2)n1` [Example 38, 3-([1,2,4]Triazolo[1,5-a]pyridin-6-yl)-2-(6-methylpyridin-2-yl)-4,5,6,7-tetrahydro-4,7-ethanopyrazolo[1,5-a]pyridine], for which the IC50 was found to be 9 nM in data set [1], 33 nM in data set [2] and 11 nM in data set [3].
For the compound `Cc1cccc(-c2nc3n(c2-c2cc4cnccc4s2)C2CCC3C2)n1` (centres unmarked) [Example 10, 2-(2-(6-Methylpyridin-2-yl)-5,6,7,8-tetrahydro-5,8-methanoimidazo[1,2-a]pyridin-3-yl) thieno[3,2-c]pyridine], the IC50 in data set [1] stood at 25 nM; in data set [2], 41 nM; in data set [3] it was 23 nM.
Turning to `Cc1cccc(-c2nc3n(c2-c2ccc4ncc(OCCO)nc4c2)C2CCC3C2)n1` (centres unmarked) [Example 7, 2-((7-(2-(6-Methylpyridin-2-yl)-5,6,7,8-tetrahydro-5,8-methanoimidazo[1,2-a]pyridin-3-yl)quinoxalin-2-yl)oxy)ethanol], the IC50 in data set [1] was 20 nM; in data set [2], 23 nM; in data set [3], 6 nM.
The corresponding values for `NC(=O)c1nnc2ccc(-c3c(-c4ccc(F)cn4)nc4n3C3CCC4C3)cn12` (centres unmarked) [Example 9, 6-(2-(5-Fluoropyridin-2-yl)-5,6,7,8-tetrahydro-5,8-methanoimidazo[1,2-a]pyridin-3-yl)-[1,2,4]triazolo[4,3-a]pyridine-3-carboxamide] are 43 nM, 91 nM and 82 nM.
In the case of `Cc1cccc(-c2nc3n(c2-c2ccc4nccc(C(N)=O)c4c2)[C@@H]2CC[C@H]3C2)n1` [Example 1-2, 6-((5R,8S)-2-(6-Methylpyridin-2-yl)-5,6,7,8-tetrahydro-5,8-methanoimidazo[1,2-a]pyridin-3-yl)quinoline-4-carboxamide], the half-maximal inhibitory concentration (IC50) in data set [1] amounted to 16 nM; in data set [3] it was 15 nM. For the same compound, the Vd/F in data set [4] (read-out: Apparent distribution volume Vz/F) was determined as 14.6 ± 7.63 L/kg. Further, the area under the curve (AUC) in data set [4] (read-out: Area under curve AUC) was determined as 475 ± 267 ng·h/mL. In data set [4] (read-out: Clearance CLz/F), the CL/F came out at 89.2 ± 47.4 mL/min/kg. Besides, the half-life in data set [4] (read-out: Half-life T1/2 (converted)) is 1.92 ± 0.14 h. Moreover, in data set [4] (read-out: Plasma concentration Cmax), the Cmax amounted to 146 ± 81 ng/mL. Moreover, the MRT in data set [4] (read-out: Residence time MRT) was determined as 3.53 ± 0.93 h.
For `Cc1cccc(-c2nc3n(c2-c2ccc4nccnc4c2)C2CCC3C2)n1` (centres unmarked) [Example 6, 2-(6-Methylpyridin-2-yl)-3-(quinoxalin-6-yl)-5,6,7,8-tetrahydro-5,8-methanoimidazo[1,2-a]pyridine], the values for the IC50 in data set [1], in data set [2] and in data set [3] were 26 nM, 22 nM and 21 nM, respectively.
Regarding `Cc1cccc(-c2nc3n(c2-c2ccc4ncnn4c2)C2CCC3C2)n1` (centres unmarked) [Example 11, 3-([1,2,4]Triazolo[1,5-a]pyridin-6-yl)-2-(6-methylpyridin-2-yl)-5,6,7,8-tetrahydro-5,8-methanoimidazo[1,2-a]pyridine], the IC50 in data set [1] worked out at 16 nM; in data set [2], 37 nM; in data set [3], 26 nM.
Consider `Cc1cccc(-c2nc3n(c2-c2ccc4nccc(C(N)=O)c4c2)C2CCC3C2)n1` (centres unmarked) [Example 1, 6-(2-(6-Methylpyridin-2-yl)-5,6,7,8-tetrahydro-5,8-methanoimidazo[1,2-a]pyridin-3-yl) quinoline-4-carboxamide], for which the values for the IC50 in data set [1], in data set [2] and in data set [3] were 14 nM, 80 nM and 57 nM, respectively.
With `NC(=O)c1ccnc2ccc(-c3c(-c4ccccn4)nc4n3[C@H]3CC[C@@H]4C3)cc12` [Example 45-1, 6-((5S,8R)-2-(Pyridin-2-yl)-5,6,7,8-tetrahydro-5,8-methanoimidazo[1,2-a]pyridin-3-yl) quinoline-4-carboxamide], the IC50 in data set [1] is 29 nM; in data set [2], 51 nM; in data set [3], 32 nM.
